The target of one assay is T1, firefly luciferase (Photinus pyralis, UniProt P08659).
T1 construct: Only implied by 'CP' in the vector name, from my own knowledge; expressed in transfected cells; host or cells: GH3.TRE-Luc cells induced with 0.25 nM T3, lysate
The assay is described as follows: Luciferase inhibition assay in GH3.TRE-Luc cell lysates. Type of assay: biochemical. As to conditions: cell lysate, read-out: inhibition of firefly luciferase luminescence signal. How it is done: Serial dilutions for each treatment were prepared in the cell lysate and incubated at room temperature for 30 min.

A further assay addresses T2, human (h) ERα (Homo sapiens, UniProt P03372).
T2 sequence (P03372 1-595): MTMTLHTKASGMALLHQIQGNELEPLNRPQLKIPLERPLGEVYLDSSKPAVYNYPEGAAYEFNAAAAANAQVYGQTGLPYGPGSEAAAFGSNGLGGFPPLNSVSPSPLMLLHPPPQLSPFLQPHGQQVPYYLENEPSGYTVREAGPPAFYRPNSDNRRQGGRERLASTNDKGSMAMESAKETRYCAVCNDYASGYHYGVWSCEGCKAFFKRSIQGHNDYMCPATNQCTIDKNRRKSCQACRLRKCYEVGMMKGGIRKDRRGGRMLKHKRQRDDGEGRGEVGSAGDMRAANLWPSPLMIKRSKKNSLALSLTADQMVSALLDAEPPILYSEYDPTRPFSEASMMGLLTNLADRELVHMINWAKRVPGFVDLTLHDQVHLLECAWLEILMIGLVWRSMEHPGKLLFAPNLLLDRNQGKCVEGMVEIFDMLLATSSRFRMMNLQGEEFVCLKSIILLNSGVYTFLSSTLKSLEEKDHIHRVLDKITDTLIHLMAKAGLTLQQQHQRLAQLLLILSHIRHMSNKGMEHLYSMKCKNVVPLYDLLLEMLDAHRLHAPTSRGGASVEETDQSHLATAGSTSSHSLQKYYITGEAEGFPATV
Kind of assay: hERα-HeLa-9903 transactivation assay, agonist setup. Type of assay: cell-based. Set-up: host or cells: hERα-HeLa-9903 (HeLa derived). As to conditions: for higher ERα RTA than vehicle control: vs 0.1% DMSO.

The test system of a further assay is Estrogen receptor-α. As to conditions: YES/YAS tests; ref Westlund and Yargeau 2017; cited from earlier work.
Another assay concerns TRα and TRβ. Kind of assay: GH3.TRE-Luc TR reporter assay, antagonist setup (0.25 nM T3). As to conditions: GH3.TRE-Luc. Type of assay: cell-based, rat.

Values joined by “and” are separate entries in the source; they are usually repeats but may differ in a detail not shown here. Equal values may be shown once. Bounds are passed on as bounds.

T1 sequence (P08659 whole entry): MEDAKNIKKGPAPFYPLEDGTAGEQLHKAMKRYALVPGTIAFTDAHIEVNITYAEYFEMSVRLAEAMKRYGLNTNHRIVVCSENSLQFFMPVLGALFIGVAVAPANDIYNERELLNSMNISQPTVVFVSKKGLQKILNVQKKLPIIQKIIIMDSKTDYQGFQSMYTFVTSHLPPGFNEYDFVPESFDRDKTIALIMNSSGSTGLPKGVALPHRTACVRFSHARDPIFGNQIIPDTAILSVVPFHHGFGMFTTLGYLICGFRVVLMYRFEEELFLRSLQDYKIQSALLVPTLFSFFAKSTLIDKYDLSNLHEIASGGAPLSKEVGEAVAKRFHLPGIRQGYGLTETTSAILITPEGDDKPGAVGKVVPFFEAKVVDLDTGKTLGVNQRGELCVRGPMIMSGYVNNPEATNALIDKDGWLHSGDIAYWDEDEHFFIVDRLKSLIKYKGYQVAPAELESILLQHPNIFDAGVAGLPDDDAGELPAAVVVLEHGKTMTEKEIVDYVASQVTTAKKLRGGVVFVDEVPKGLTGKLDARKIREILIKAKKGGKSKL

A word on the inhibition: it is the drop in the measured response relative to a control, in per cent. On to `CC(C)(C)C(=O)C(Oc1ccc(Cl)cc1)n1ccnc1` (centres unmarked) [Climbazole, 1-(4-Chlorophenoxy)-1-(imidazol-1-yl)-3,3-dimethylbutan-2-one], for which the inhibition at 50 µM on firefly luciferase was roughly 12%. In addition, the “higher ERα RTA than vehicle control” value at human (h) ERα (10 μM) was > 30.0% and 36.6%. Besides, the “higher ERα RTA than vehicle control” value on human (h) ERα (100 μM) was found to be 94%. Moreover, on human (h) ERα (hERα-HeLa-9903), the “ERα agonist activity, call” value is “Agonist” and the “concentration with ERα agonist activity” value lay within 10 to 100 µM. In addition, the “effect on ER, yeast based assay” value in the assay with Estrogen receptor-α is “No effect ([Westlund and Yargeau 2017])”. In the assay with TRα and TRβ, the “TR antagonist activity, call” value is on record as “Antagonist” and the “concentration with TR antagonist activity” value came out at 10 µM.
